Measured values as given in article PMC11601618 (bioRxiv, 2024).
Each block holds one molecule with its values, some of them ahead of it.

How the values were obtained:
[1] = molecular target: T1, chicken BEST1 (bestrophin 1) (Gallus gallus, UniProt A0A8V0ZZU7); assay: cryo-EM structure with […] GABA; assay type: biochemical
T1 sequence (A0A8V0ZZU7 1-405): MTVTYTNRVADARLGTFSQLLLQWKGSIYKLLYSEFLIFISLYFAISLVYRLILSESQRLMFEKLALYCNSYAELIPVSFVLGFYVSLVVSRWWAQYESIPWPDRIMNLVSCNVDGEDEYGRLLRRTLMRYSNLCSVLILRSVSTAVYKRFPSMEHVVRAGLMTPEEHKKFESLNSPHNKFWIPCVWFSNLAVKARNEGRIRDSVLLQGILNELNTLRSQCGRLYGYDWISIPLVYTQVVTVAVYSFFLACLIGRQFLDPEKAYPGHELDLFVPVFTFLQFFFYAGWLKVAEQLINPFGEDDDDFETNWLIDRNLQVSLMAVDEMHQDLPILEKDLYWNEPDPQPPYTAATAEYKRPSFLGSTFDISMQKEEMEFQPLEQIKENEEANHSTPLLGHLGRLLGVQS

cryo-EM structure = molecular target: the molecule itself; assay: cryo-EM structure

EC50 [1]: ~2000 µM
Molecule: NCCCC(=O)O [GABA]

B1: human BEST1 (spanning amino acids 1-398) (domain or fragment, UniProt O76090 1-398, looked up)
chain: MTITYTSQVANARLGSFSRLLLCWRGSIYKLLYGEFLIFLLCYYIIRFIYRLALTEEQQLMFEKLTLYCDSYIQLIPISFVLGFYVTLVVTRWWNQYENLPWPDRLMSLVSGFVEGKDEQGRLLRRTLIRYANLGNVLILRSVSTAVYKRFPSAQHLVQAGFMTPAEHKQLEKLSLPHNMFWVPWVWFANLSMKAWLGGRIRDPILLQSLLNEMNTLRTQCGHLYAYDWISIPLVYTQVVTVAVYSFFLTCLVGRQFLNPAKAYPGHELDLVVPVFTFLQFFFYVGWLKVAEQLINPFGEDDDDFETNWIVDRNLQVSLLAVDEMHQDLPRMEPDMYWNKPEPQPPYTAASAQFRRASFMGSTFNISLNKEEMEFQPNQEDEEDAHAGIIGRFLGLQS
stoichiometry N (cryo-EM structure): 5
